Here are results for 14 molecules from patent US12568969B2, “Pyridine compounds for controlling invertebrate pests” (FMC Corporation, priority 2020, dated 2026).

Format in all cases: in vivo
The subject of assay [1] is diamondback moth (Plutella xylostella (L.)). Put plainly: Test A: control of diamondback moth on mustard plant, spray. As to conditions: sprayed at 250 ppm; assessed after 6 days. On the procedure:
(§1) Test compounds were formulated using a solution containing 10% acetone, […] and 300 ppm Activator 909 non-ionic surfactant (Loveland Products, Loveland, Colorado, USA). The formulated compounds were applied in 1 mL of liquid through an atomizer nozzle positioned 1.27 cm (0.5 inches) above the top of each test unit. Test compounds were sprayed at the rates indicated, and each test was replicated three times.
For evaluating control of diamondback moth (Plutella xylostella (L.)) the test unit consisted of a small open container with a 12-14-day-old mustard plant inside. This was pre-infested with ˜50 neonate larvae that were dispensed into the test unit via corn cob grits using an inoculator. The larvae moved onto the test plant after being dispensed into the test unit.
Test compounds were formulated and sprayed at 250 ppm. After spraying of the formulated test compound, each test unit was allowed to dry for 1 hour and then a black, screened cap was placed on top. The test units were held for 6 days in a growth chamber at 25° C. and 70% relative humidity. Plant feeding damage was then visually assessed based on foliage consumed, and larvae were assessed for mortality.

Assay [2] relates to green peach aphid (Myzus persicae (Sulzer)). Description: Test D: control of green peach aphid on radish plant, spray. The settings on record: Myzus persicae, 144 h, 6 days; for mortality at 50 ppm: sprayed at 50 ppm; for mortality at 250 ppm: sprayed at 250 ppm. On the procedure: as §1
For evaluating control of green peach aphid (Myzus persicae (Sulzer)) through contact and/or systemic means, the test unit consisted of a small open container with a 12-15-day-old radish plant inside. This was pre-infested by placing on a leaf of the test plant 30-40 aphids on a piece of leaf excised from a culture plant (cut-leaf method). The aphids moved onto the test plant as the leaf piece desiccated. After pre-infestation, the soil of the test unit was covered with a layer of sand.
[…] After spraying of the formulated test compound, each test unit was allowed to dry for 1 hour and then a black, screened cap was placed on top. The test units were held for 6 days in a growth chamber at 19-21° C. and 50-70% relative humidity. Each test unit was then visually assessed for insect mortality.

The test system of assay [3] is sweetpotato whitefly (Bemisia tabaci (Gennadius)). Description: Test F: control of sweetpotato whitefly on cotton plant, spray. As to conditions: 312 h, 13 days; for mortality at 50 ppm: sprayed at 50 ppm; for mortality at 250 ppm: sprayed at 250 ppm. On the procedure:
as §1
For evaluating control of the sweetpotato whitefly (Bemisia tabaci (Gennadius)) through contact and/or systemic means, the test unit consisted of a small open container with a 12-14-day-old cotton plant inside. Prior to the spray application, both cotyledons were removed from the plant, leaving one true leaf for the assay. Adult whiteflies were allowed to lay eggs on the plant and then were removed from the test unit. Cotton plants infested with at least 15 eggs were submitted to the test for spraying.
Test compounds were formulated and sprayed at 250 and/or 50 ppm. After spraying, the test units were allowed to dry for 1 hour. The cylinders were then removed, and the units were taken to a growth chamber and held for 13 days at 28° C. and 50-70% relative humidity. Each test unit was then visually assessed for insect mortality.

Assay [4] has as its system corn planthopper (Peregrinus maidis (Ashmead)). Description: whole plant or invertebrate. The settings on record: Peregrinus maidis, 144 h, 6 days; for mortality at 10 ppm: sprayed at 10 ppm; for mortality at 50 ppm: sprayed at 50 ppm; for mortality at 250 ppm: sprayed at 250 ppm. As to the method: as §1
For evaluating control of corn planthopper (Peregrinus maidis (Ashmead)) through contact and/or systemic means, the test unit consisted of a small open container with a 3-4-day-old corn (maize) plant inside. White sand was added to the top of the soil prior to application of the test compound.
Test compounds were formulated and sprayed at 250 and/or 50 ppm and/or 10 ppm. After spraying of the formulated test compound, the test units were allowed to dry for 1 h before they were post-infested with ˜15-20 nymphs (18-to-21-day-old). A black, screened cap was placed on the top of each test unit, and the test units were held for 6 days in a growth chamber at 22-24° C. and 50-70% relative humidity. Each test unit was then visually assessed for insect mortality.

Assay [5] concerns cotton melon aphid (Aphis gossypii (Glover)). Description: whole plant or invertebrate. As to conditions: Aphis gossypii, 144 h, 6 days; for mortality at 50 ppm: sprayed at 50 ppm; for mortality at 250 ppm: sprayed at 250 ppm. As to the method:
as §1
[…] This was pre-infested with 30-40 insects on a piece of leaf according to the cut-leaf method, and the soil of the test unit was covered with a layer of sand.
Test compounds were formulated and sprayed at 250 and/or 50 ppm. After spraying, the test units were maintained in a growth chamber for 6 days at 19° C. and 70% relative humidity. Each test unit was then visually assessed for insect mortality.

The structures appear in SMILES notation.

Usually mortality stands for the share of the test organisms that died. A higher mortality goes with a strong lethal effect.

With `Fc1cncc(-n2nccn2)c1C(F)c1ccc(C(F)(F)F)cn1` (stereo not drawn) [Compound 172], the “control efficacy (40% or less feeding damage and/or 100% mortality)” value in assay [1] was “very good to excellent levels of control efficacy”.

Regarding `Cc1noc(-c2cncc(Cl)c2C(F)c2ccc([S+]([O-])C(F)(F)F)cc2)n1` (mixture of isomers) [Compound 104], in assay [1], the “control efficacy (40% or less feeding damage and/or 100% mortality)” value was “very good to excellent levels of control efficacy”.

`Fc1cncc(-n2nccn2)c1C(F)c1ccc(Br)nc1` (stereo not drawn) [Compound 166]: the “control efficacy (40% or less feeding damage and/or 100% mortality)” value in assay [1] is reported as “very good to excellent levels of control efficacy”.

As for `Fc1cncc(-n2cccn2)c1C(F)c1ccc(C(F)(F)F)cn1` (stereo not drawn) [Compound 171], the “control efficacy (40% or less feeding damage and/or 100% mortality)” value in assay [1] is listed as “very good to excellent levels of control efficacy”.

Consider `FC(c1ccc2c(c1)OC(F)(F)O2)c1c(Br)cncc1-n1nccn1` (stereo not drawn) [Compound 147], for which, in assay [1], the “control efficacy (40% or less feeding damage and/or 100% mortality)” value was “very good to excellent levels of control efficacy”.

As for `COC(c1ccc(SC(F)(F)F)cc1)c1c(Cl)cncc1-n1nccn1` (stereo not drawn) [Compound 127], the mortality at 50 ppm was no less than 80% in assay [2], no less than 70% in assay [3], no less than 80% in assay [4] and no less than 80% in assay [5]. Besides, the mortality at 250 ppm in assay [2] is no less than 80%; in assay [3], no less than 70%; in assay [4] it was no less than 80%; in assay [5] it was no less than 80%. In assay [4], this molecule gave a mortality at 10 ppm of no less than 80%.

`FC(c1ccc(OC(F)(F)F)cc1)c1ccncc1-n1cncn1` (stereo not drawn) [Compound 12]: the mortality at 250 ppm was no less than 80% in assay [2], no less than 70% in assay [3], no less than 80% in assay [4] and no less than 80% in assay [5]. Moreover, the mortality at 50 ppm in assay [4] and in assay [5] was no less than 80% throughout.

With `FC(c1ccc(SC(F)(F)F)cc1)c1c(I)cncc1-n1nccn1` (stereo not drawn) [Compound 95], the mortality at 50 ppm is no less than 80% in assay [2], no less than 70% in assay [3], no less than 80% in assay [4] and no less than 80% in assay [5]. Also, the mortality at 250 ppm is no less than 80% in assay [2], no less than 70% in assay [3], no less than 80% in assay [4] and no less than 80% in assay [5]. The mortality at 10 ppm in assay [4] was no less than 80%.

Take `COC(c1ccc(OC(F)(F)F)cc1)c1ncncc1-n1nccn1` (stereo not drawn) [Compound 175]: the “control efficacy (40% or less feeding damage and/or 100% mortality)” value in assay [1] is “very good to excellent levels of control efficacy”.

In the case of `COC(c1ccc2c(c1)OC(F)(F)O2)c1c(F)cncc1-n1cccn1` (stereo not drawn) [Compound 155], the “control efficacy (40% or less feeding damage and/or 100% mortality)” value in assay [1] was “very good to excellent levels of control efficacy”.

`Cc1noc(-c2cncc(F)c2C(F)c2ccc(OC(F)(F)F)cc2)n1` (racemic) [Compound 39]: the “control efficacy (40% or less feeding damage and/or 100% mortality)” value in assay [1] was “very good to excellent levels of control efficacy”.

Consider `FC(c1ccc(OC(F)(F)F)cc1)c1c(C2CC2)cncc1-n1nccn1` (racemic) [Compound 53], for which the “control efficacy (40% or less feeding damage and/or 100% mortality)” value in assay [1] is given as “very good to excellent levels of control efficacy”.

As for `[O-][S+](c1ccc(C(F)c2c(Cl)cncc2-n2nccn2)cc1)C(F)(F)F` (stereo not drawn) [Compound 90], the mortality at 50 ppm in assay [2] is no less than 80%; in assay [3], no less than 70%; in assay [4] it was no less than 80%; in assay [5], no less than 80%. Moreover, the mortality at 250 ppm in assay [2] is no less than 80%; in assay [3], no less than 70%; in assay [4], no less than 80%; in assay [5], no less than 80%.

As for `FC(c1ccc(OC(F)(F)F)cc1)c1c(Br)cncc1-n1nccn1` (stereo not drawn) [Compound 17], the mortality at 50 ppm in assay [2], in assay [4] and in assay [5] was no less than 80% in each case. Also, the mortality at 250 ppm was no less than 80% in assay [2], no less than 70% in assay [3], no less than 80% in assay [4] and no less than 80% in assay [5].
